Assay results published in ChEMBL document CHEMBL3431459, “Roche carnitine palmitoyltransferase modulator screening data (supplementary data associated with the publication CHEMBL2216752)”.

Experiments:
[1] = target: T1, Carnitine O-palmitoyltransferase 2, mitochondrial (Homo sapiens, UniProt P23786); assay: (§1) SUPPLEMENTARY: Inhibition of Carnitine palmitoyltransferase 2
T1 sequence (P23786 whole entry): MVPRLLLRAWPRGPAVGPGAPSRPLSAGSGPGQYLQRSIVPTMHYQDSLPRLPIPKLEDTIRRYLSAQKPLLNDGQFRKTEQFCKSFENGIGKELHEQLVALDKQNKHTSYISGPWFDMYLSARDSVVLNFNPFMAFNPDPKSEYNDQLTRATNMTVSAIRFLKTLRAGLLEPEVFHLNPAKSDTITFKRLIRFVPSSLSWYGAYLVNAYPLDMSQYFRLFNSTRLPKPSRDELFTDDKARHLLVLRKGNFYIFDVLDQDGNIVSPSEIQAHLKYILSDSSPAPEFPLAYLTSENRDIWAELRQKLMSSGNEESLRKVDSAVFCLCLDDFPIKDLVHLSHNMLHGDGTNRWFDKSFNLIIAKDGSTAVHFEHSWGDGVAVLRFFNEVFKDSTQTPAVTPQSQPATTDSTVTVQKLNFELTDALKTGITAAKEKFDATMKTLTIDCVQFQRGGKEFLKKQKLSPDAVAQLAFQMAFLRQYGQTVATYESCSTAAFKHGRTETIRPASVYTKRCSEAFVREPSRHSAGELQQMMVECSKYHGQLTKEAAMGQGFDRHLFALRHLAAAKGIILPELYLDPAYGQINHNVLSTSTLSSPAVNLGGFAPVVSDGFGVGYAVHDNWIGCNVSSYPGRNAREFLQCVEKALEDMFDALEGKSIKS

[2] = target: T2, Carnitine O-palmitoyltransferase 2, mitochondrial (Rattus norvegicus, UniProt P18886); assay: as §1
T2 sequence (P18886 whole entry): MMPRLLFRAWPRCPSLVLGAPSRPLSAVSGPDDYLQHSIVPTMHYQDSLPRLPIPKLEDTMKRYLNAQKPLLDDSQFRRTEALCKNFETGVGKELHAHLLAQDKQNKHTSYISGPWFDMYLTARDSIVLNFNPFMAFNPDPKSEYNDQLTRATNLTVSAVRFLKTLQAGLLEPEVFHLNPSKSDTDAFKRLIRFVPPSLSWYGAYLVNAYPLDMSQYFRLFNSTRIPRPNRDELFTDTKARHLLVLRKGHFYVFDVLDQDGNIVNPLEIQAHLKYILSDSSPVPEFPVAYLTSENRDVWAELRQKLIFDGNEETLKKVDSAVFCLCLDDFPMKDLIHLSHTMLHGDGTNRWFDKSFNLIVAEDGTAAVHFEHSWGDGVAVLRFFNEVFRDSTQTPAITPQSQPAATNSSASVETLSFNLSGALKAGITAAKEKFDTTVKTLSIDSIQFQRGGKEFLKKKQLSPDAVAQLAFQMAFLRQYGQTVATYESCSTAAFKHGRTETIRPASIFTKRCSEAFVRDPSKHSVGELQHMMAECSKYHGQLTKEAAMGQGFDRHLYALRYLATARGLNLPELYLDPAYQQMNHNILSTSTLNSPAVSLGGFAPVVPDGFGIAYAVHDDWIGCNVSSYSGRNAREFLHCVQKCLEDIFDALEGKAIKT

[3] = target: T3, Carnitine O-palmitoyltransferase 1, liver isoform (Rattus norvegicus, UniProt P32198); assay: (§2) SUPPLEMENTARY: Inhibition of Carnitine palmitoyltransferase 1, liver isoform
T3 sequence (P32198 whole entry): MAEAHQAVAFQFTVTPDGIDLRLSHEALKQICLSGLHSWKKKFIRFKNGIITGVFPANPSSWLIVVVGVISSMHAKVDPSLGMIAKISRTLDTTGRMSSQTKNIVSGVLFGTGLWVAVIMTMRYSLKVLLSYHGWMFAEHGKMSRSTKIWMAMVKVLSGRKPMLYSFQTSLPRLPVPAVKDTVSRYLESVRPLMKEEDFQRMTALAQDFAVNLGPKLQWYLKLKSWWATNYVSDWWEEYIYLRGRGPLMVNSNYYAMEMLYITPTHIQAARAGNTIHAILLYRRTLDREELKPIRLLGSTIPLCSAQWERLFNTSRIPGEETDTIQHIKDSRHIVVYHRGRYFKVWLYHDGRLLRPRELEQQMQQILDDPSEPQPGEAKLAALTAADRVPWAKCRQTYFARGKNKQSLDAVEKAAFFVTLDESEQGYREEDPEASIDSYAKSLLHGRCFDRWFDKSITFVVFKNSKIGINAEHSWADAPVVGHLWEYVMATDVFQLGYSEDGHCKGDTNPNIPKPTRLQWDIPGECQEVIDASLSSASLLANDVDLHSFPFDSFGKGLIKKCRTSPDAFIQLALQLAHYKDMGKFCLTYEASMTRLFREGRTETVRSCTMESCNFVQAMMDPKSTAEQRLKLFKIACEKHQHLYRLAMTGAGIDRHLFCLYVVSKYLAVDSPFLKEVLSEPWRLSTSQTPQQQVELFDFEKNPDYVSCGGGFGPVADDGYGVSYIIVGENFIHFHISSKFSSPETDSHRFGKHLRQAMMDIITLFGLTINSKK

[4] = target: T4, Carnitine O-palmitoyltransferase 1, liver isoform (Homo sapiens, UniProt P50416); assay: as §2
T4 sequence (P50416 whole entry): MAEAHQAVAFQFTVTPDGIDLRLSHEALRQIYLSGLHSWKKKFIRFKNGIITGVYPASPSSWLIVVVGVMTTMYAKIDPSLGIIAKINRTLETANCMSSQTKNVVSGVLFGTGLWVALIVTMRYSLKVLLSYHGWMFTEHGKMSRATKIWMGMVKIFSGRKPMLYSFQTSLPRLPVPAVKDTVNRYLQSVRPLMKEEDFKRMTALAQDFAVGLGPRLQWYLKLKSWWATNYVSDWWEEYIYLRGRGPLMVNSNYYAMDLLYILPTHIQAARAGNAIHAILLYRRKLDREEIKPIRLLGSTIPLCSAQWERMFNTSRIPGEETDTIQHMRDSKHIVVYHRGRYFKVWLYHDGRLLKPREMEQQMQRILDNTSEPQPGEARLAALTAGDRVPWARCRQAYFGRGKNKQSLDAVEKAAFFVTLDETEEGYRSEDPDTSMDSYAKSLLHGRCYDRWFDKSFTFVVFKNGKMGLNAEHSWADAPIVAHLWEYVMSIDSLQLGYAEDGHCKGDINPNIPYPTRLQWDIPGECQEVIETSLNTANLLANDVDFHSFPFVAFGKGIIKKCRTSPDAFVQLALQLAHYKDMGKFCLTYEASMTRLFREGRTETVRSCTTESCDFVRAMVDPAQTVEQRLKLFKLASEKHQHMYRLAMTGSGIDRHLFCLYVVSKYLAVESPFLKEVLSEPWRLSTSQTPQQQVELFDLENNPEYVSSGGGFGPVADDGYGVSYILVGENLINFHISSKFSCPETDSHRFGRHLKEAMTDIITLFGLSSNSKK

[5] = target: T5, Carnitine O-palmitoyltransferase 1, muscle isoform (Homo sapiens, UniProt Q92523); assay: SUPPLEMENTARY: Inhibition of Carnitine palmitoyltransferase 1, muscle isoform; parameters: species or system Muscle tissue
T5 sequence (Q92523 whole entry): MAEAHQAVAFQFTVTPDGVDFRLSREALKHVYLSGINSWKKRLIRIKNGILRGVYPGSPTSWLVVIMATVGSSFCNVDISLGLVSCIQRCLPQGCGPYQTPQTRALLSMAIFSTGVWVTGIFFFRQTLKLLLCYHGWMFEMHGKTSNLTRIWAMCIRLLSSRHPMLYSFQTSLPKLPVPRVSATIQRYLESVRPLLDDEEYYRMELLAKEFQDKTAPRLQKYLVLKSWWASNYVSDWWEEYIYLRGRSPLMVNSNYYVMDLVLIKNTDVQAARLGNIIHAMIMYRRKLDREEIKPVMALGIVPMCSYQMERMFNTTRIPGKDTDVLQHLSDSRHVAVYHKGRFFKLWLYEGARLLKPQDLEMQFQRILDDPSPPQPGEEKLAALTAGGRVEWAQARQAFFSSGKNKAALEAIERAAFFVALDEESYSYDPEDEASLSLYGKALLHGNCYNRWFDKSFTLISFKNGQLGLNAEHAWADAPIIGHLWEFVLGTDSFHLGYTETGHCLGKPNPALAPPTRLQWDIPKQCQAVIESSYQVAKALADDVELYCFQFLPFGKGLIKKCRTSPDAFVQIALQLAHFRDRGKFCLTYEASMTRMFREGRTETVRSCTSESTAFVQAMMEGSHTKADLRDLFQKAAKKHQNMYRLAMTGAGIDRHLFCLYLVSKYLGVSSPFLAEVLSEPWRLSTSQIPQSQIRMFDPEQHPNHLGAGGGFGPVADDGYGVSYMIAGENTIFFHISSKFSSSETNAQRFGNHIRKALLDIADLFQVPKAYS

IC50 [1] [nM]	IC50 [2] [nM]	IC50 [3] [nM]	IC50 [4] [nM]	IC50 [5] [nM]	Structure (SMILES)
2580	15400	102	224	2150	COc1ccc(C)cc1S(=O)(=O)N1CCOc2ccc(C(=O)Nc3ccc(C(=O)O)c(F)c3)cc21
> 100000	> 100000	453	622	1530	COCCN(c1cc(C(=O)Nc2ccc(CC(=O)O)cc2)cc2c1OCO2)S(=O)(=O)c1cc(Cl)ccc1OC
> 100000	> 100000	1230	1380	> 100000	O=C(COc1ccccc1)N1CCCC[C@@H]1c1nc(-c2ccc(Cl)cc2)cs1
> 100000	> 100000	> 10000	> 10000	> 100000	COc1ccc(Cl)cc1[S+]([O-])c1c[nH]c2ccc(C(=O)Nc3ccccc3)cc12 (stereo not given)
544	291	233	151	> 100000	O=C([C@H]1CCCCN1C(=O)COc1ccccc1)N1CCN(c2cccc(Cl)c2)CC1
13800	> 100000	188	224	2970	COc1ccc(Cl)cc1S(=O)(=O)N(c1cc(C(=O)Nc2nc(CC(=O)O)cs2)cc2c1OCO2)C(C)C
24200	> 100000	103	159	> 100000	COc1ccc(-n2nnc([C@H]3CCCCN3C(=O)COc3ccccc3)n2)cc1
> 100000	28000	> 10000	> 10000	> 100000	O=C(O)c1ccccc1CCc1ccc(NS(=O)(=O)c2ccc(Cl)cc2)cc1
586	1270	196	124	31700	Cc1ccnc(N2CCN(C(=O)[C@H]3CCCCN3C(=O)COc3ccccc3)CC2)c1
634	1610	367	224	> 100000	O=C([C@H]1CCCCN1C(=O)COc1ccccc1)N1CCc2c(Cl)cccc2C1
1440	16000	2910	325	> 100000	COc1ccc(Cl)cc1S(=O)(=O)N1CCOc2c(C(F)F)cc(C(=O)Nc3ccc(C(=O)O)cc3)cc21
> 100000	> 100000	173	153	> 100000	O=C(COc1ccccc1)N1CCCC[C@@H]1c1noc(-c2cc(F)c(F)cc2F)n1
> 100000	> 100000	256	197	> 100000	O=C(COc1ccccc1)N1CCCC[C@@H]1c1nnn(-c2ccc(F)cc2)n1
> 100000	> 100000	792	337	5320	COCCN(c1cc(C(=O)Nc2ccn(CC(=O)O)n2)cc2c1OCO2)S(=O)(=O)c1cc(Cl)ccc1OC
> 100000	> 100000	76.9	156	> 100000	O=C(COc1ccccc1)N1CCCC[C@@H]1c1nnn(-c2ccccc2)n1
26400	50400	840	223	70700	O=C1Nc2ccc(-c3n[nH]c([C@H]4CCCCN4C(=O)COc4ccccc4)n3)cc2CO1
21300	35100	15.8	41.6	1680	COc1ccc(Cl)cc1S(=O)(=O)c1nn(C)c2ccc(C(=O)Nc3ccc(C(=O)O)c(Cl)c3)cc12
3130	961	388	198	> 100000	O=C([C@H]1CCCCN1C(=O)COc1ccccc1)N1CCN(c2cc(Cl)cc(Cl)c2)CC1
> 100000	> 100000	15.3	46.6	31900	COc1ccc(Cl)cc1S(=O)(=O)N1C[C@H](C(=O)O)Oc2ccc(C(=O)Nc3ccccc3)cc21
> 100000	> 100000	381	162	> 100000	COc1ccc(Cl)cc1S(=O)(=O)c1c2cc(C(=O)Nc3ccccc3)ccc2nn1C
59800	> 100000	632	305	> 100000	COC(=O)c1cccc(-c2nc([C@H]3CCCCN3C(=O)COc3ccccc3)sc2C)c1
